Source: patent US6677347B2, “Sulfonamido ether substituted imidazoquinolines” (3M Innovative Properties Company, priority 2000, dated 2004)

Columns and labels:
interferon (α) = experiment: Cytokine Induction in Human Cells: interferon (α) by ELISA; format: cell-based; parameters: key to Lowest Effective Concentration (μM) Interferon: *: no induction was seen at any of the tested concentrations; generally the highest concentration tested was 10 or 30 μM; conditions: human PBMC, 18 to 24 hours incubation, lowest concentration found to induce interferon
Text: (§1) An in vitro human blood cell system is used to assess cytokine induction. Activity is based on the measurement of interferon and tumor necrosis factor (α) (IFN and TNF, respectively) secreted into culture media as described by Testerman et. al. In “Cytokine Induction by the Immunomodulators Imiquimod and S-27609”, Journal of Leukocyte Biology, 58, 365-372 (September, 1995).
(§2) Whole blood from healthy human donors is collected by venipuncture into EDTA vacutainer tubes. Peripheral blood mononuclear cells (PBMC) are separated from whole blood by density gradient centrifugation using Histopaque®-1077. Blood is diluted 1:1 with Dulbecco's Phosphate Buffered Saline (DPBS) or Hank's Balanced Salts Solution (HBSS). The PBMC layer is collected and washed twice with DPBS or HBSS and resuspended at 4×10^6 cells/mL in RPMI complete. The PBMC suspension is added to 48 well flat bottom sterile tissue culture plates (Costar, Cambridge, Mass. or Becton Dickinson Labware, Lincoln Park, N.J.) containing an equal volume of RPMI complete media containing test compound.
(§3) The compounds are solubilized in dimethyl sulfoxide (DMSO). The DMSO concentration should not exceed a final concentration of 1% for addition to the culture wells. The compounds are generally tested at concentrations ranging from 30-0.014 μM.
(§4) The solution of test compound is added at 60 μM to the first well containing RPMI complete and serial 3 fold dilutions are made in the wells. The PBMC suspension is then added to the wells in an equal volume, bringing the test compound concentrations to the desired range (30-0.014 μM). The final concentration of PBMC suspension is 2×10^6 cells/mL. The plates are covered with sterile plastic lids, mixed gently and then incubated for 18 to 24 hours at 37° C. in a 5% carbon dioxide atmosphere.
(§5) Following incubation the plates are centrifuged for 10 minutes at 1000 rpm (˜200×g) at 4° C. The cell-free culture supernatant is removed with a sterile polypropylene pipet and transferred to sterile polypropylene tubes. Samples are maintained at −30 to −70° C. until analysis. The samples are analyzed for interferon (α) by ELISA and for tumor necrosis factor (α) by ELISA or IGEN Assay
Interferon (α) concentration is determined by ELISA using a Human Multi-Species kit from PBL Biomedical Laboratories, New Brunswick, N.J. Results are expressed in pg/mL.
(§6) The table below lists the lowest concentration found to induce interferon and the lowest concentration found to induce tumor necrosis factor for each compound.

[1] = test system: tumor necrosis factor (α); experiment: Cytokine Induction in Human Cells: tumor necrosis factor (α) by ELISA or IGEN assay; format: cell-based; parameters: key to Lowest Effective Concentration (μM) Tumor Necrosis Factor: *: no induction was seen at any of the tested concentrations; generally the highest concentration tested was 10 or 30 μM; conditions: human PBMC, 18 to 24 hours incubation, lowest concentration found to induce tumor necrosis factor
Text: as §1, §2, §3, §4, §5
Tumor necrosis factor (α) (TNF) concentration is determined using ELISA kits available from Biosource International, Camarillo, Calif. Alternately, the TNF concentration can be determined by Origen® M-Series Immunoassay and read on an IGEN M-8 analyzer from IGEN International, Gaithersburg, Md. The immunoassay uses a human TNF capture and detection antibody pair from Biosource International, Camarillo, Calif. Results are expressed in pg/mL.
as §6

CCCCc1nc2c(N)nc3ccccc3c2n1CCOCCNS(=O)(=O)C(C)C [Example 7]
minimal effective concentration (interferon (α)): 0.01 µM | minimal effective concentration [1]: 1 µM

CCC(COCCC1CCN(S(=O)(=O)N(C)C)CC1)n1cnc2c(N)nc3ccccc3c21 (centres unmarked) [Example 28]
minimal effective concentration (interferon (α)): 0.1 µM | minimal effective concentration [1]: 1 µM

CCCCc1nc2c(N)nc3ccccc3c2n1CCOCCNS(=O)(=O)Cc1ccccc1 [Example 12]
minimal effective concentration (interferon (α)): 0.1 µM | minimal effective concentration [1]: 10 µM

CCCCc1nc2c(N)nc3ccccc3c2n1CCOCCNS(=O)(=O)C[C@@]12CC[C@@H](CC1=O)C2(C)C [Example 26]
minimal effective concentration (interferon (α)): 0.01 µM | minimal effective concentration [1]: 10 µM

CCCCc1nc2c(N)nc3ccccc3c2n1CCOCCNS(=O)(=O)c1ccc2ccccc2c1 [Example 19]
Lowest Effective Concentration (μM) Interferon (interferon (α)): * | minimal effective concentration [1]: 10 µM

CCC(COCCC1CCN(S(=O)(=O)c2cccc3cccnc23)CC1)n1cnc2c(N)nc3ccccc3c21 (centres unmarked) [Example 36]
minimal effective concentration (interferon (α)): 1 µM | minimal effective concentration [1]: 10 µM

CCCCc1nc2c(N)nc3ccccc3c2n1CCOCCNS(=O)(=O)c1ccc(OC)cc1 [Example 16]
minimal effective concentration (interferon (α)): 1 µM | minimal effective concentration [1]: 10 µM

CCC(COCCC1CCN(S(=O)(=O)c2ccc(F)cc2F)CC1)n1cnc2c(N)nc3ccccc3c21 (centres unmarked) [Example 35]
minimal effective concentration (interferon (α)): 1 µM | minimal effective concentration [1]: 1 µM

CCC(COCCC1CCN(S(=O)(=O)c2ccc(OC(F)(F)F)cc2)CC1)n1cnc2c(N)nc3ccccc3c21 (centres unmarked) [Example 38]
Lowest Effective Concentration (μM) Interferon (interferon (α)): * | Lowest Effective Concentration (μM) Tumor Necrosis Factor [1]: *

CCC(COCCC1CCN(S(=O)(=O)c2ccc(S(C)(=O)=O)cc2)CC1)n1cnc2c(N)nc3ccccc3c21 (centres unmarked) [Example 37]
minimal effective concentration (interferon (α)): 0.1 µM | minimal effective concentration [1]: 1 µM

CCCCc1nc2c(N)nc3ccccc3c2n1CCOCCNS(=O)(=O)c1cccc(C#N)c1 [Example 15]
minimal effective concentration (interferon (α)): 10 µM | minimal effective concentration [1]: 10 µM

CCCCc1nc2c(N)nc3ccccc3c2n1CCOCCNS(=O)(=O)c1ccc(OC(F)(F)F)cc1 [Example 24]
minimal effective concentration (interferon (α)): 0.0001 µM | minimal effective concentration [1]: 10 µM

CCCCc1nc2c(N)nc3ccccc3c2n1CCOCCNS(=O)(=O)c1ccc(F)cc1F [Example 17]
minimal effective concentration (interferon (α)): 1 µM | minimal effective concentration [1]: 10 µM

CCCCc1nc2c(N)nc3ccccc3c2n1CCOCCNS(=O)(=O)CCCC [Example 9]
minimal effective concentration (interferon (α)): 0.1 µM | minimal effective concentration [1]: 1 µM

Nc1nc2ccccc2c2c1ncn2CCOCCNS(=O)(=O)c1ccc2ccccc2c1 [Example 45]
Lowest Effective Concentration (μM) Interferon (interferon (α)): * | Lowest Effective Concentration (μM) Tumor Necrosis Factor [1]: *

CCC(COCCC1CCN(S(=O)(=O)c2cccc(C#N)c2)CC1)n1cnc2c(N)nc3ccccc3c21 (centres unmarked) [Example 33]
minimal effective concentration (interferon (α)): 1 µM | minimal effective concentration [1]: 1 µM

CS(=O)(=O)c1ccc(S(=O)(=O)NCCOCCn2cnc3c(N)nc4ccccc4c32)cc1 [Example 48]
Lowest Effective Concentration (μM) Interferon (interferon (α)): * | minimal effective concentration [1]: 10 µM

Nc1nc2ccccc2c2c1ncn2CCOCCNS(=O)(=O)c1ccc(-c2ccccc2)cc1 [Example 47]
Lowest Effective Concentration (μM) Interferon (interferon (α)): * | Lowest Effective Concentration (μM) Tumor Necrosis Factor [1]: *

COc1ccc(S(=O)(=O)NCCOCCn2cnc3c(N)nc4ccccc4c32)cc1 [Example 43]
minimal effective concentration (interferon (α)): 10 µM | minimal effective concentration [1]: 10 µM

CCC(COCCC1CCN(S(=O)(=O)c2cccc(F)c2)CC1)n1cnc2c(N)nc3ccccc3c21 (centres unmarked) [Example 32]
minimal effective concentration (interferon (α)): 1 µM | minimal effective concentration [1]: 1 µM

CCCCc1nc2c(N)nc3ccccc3c2n1CCOCCNS(=O)(=O)CC [Example 6]
minimal effective concentration (interferon (α)): 0.001 µM | minimal effective concentration [1]: 1 µM

Cc1nc2c(N)nc3ccccc3c2n1CCCOCCOCCCNS(=O)(=O)c1cccc2c(N(C)C)cccc12 [Example 50, N-[10-(4-amino-2-methyl-1H-imidazo[4,5-c]quinolin-1-yl)-4,7-dioxadecyl]-5-dimethylaminonaphthalene-1-sulfonamide]
minimal effective concentration (interferon (α)): 1.11 µM | Lowest Effective Concentration (μM) Tumor Necrosis Factor [1]: *

CCCCc1nc2c(N)nc3ccccc3c2n1CCOCCNS(=O)(=O)c1cccc(F)c1 [Example 13]
minimal effective concentration (interferon (α)): 1 µM | minimal effective concentration [1]: 10 µM

CCCCc1nc2c(N)nc3ccccc3c2n1CCOCCNS(=O)(=O)c1cccs1 [Example 11]
minimal effective concentration (interferon (α)): 1 µM | minimal effective concentration [1]: 10 µM

CCC(COCCC1CCN(S(=O)(=O)c2ccc(/N=N/c3ccc(N(C)C)cc3)cc2)CC1)n1cnc2c(N)nc3ccccc3c21 (centres unmarked) [Example 39]
minimal effective concentration (interferon (α)): 1 µM | Lowest Effective Concentration (μM) Tumor Necrosis Factor [1]: *

CCCCc1nc2c(N)nc3ccccc3c2n1CCOCCNS(=O)(=O)c1ccc(/N=N/c2ccc(N(C)C)cc2)cc1 [Example 25]
minimal effective concentration (interferon (α)): 0.0001 µM | Lowest Effective Concentration (μM) Tumor Necrosis Factor [1]: *

Nc1nc2ccccc2c2c1ncn2CCOCCNS(=O)(=O)c1ccc(OC(F)(F)F)cc1 [Example 49]
Lowest Effective Concentration (μM) Interferon (interferon (α)): * | minimal effective concentration [1]: 10 µM

Nc1nc2ccccc2c2c1ncn2CCOCCNS(=O)(=O)c1ccccc1 [Example 41]
minimal effective concentration (interferon (α)): 10 µM | minimal effective concentration [1]: 1 µM

CCCCc1nc2c(N)nc3ccccc3c2n1CCOCCNS(=O)(=O)c1cccc2ccccc12 [Example 18]
Lowest Effective Concentration (μM) Interferon (interferon (α)): * | minimal effective concentration [1]: 10 µM

CCCCc1nc2c(N)nc3ccccc3c2n1CCOCCNS(=O)(=O)c1ccc(-c2ccccc2)cc1 [Example 22]
minimal effective concentration (interferon (α)): 0.0001 µM | minimal effective concentration [1]: 10 µM

CCCCc1nc2c(N)nc3ccccc3c2n1CCOCCNS(=O)(=O)c1cccc2cccnc12 [Example 20]
minimal effective concentration (interferon (α)): 1 µM | minimal effective concentration [1]: 10 µM

CCCCc1nc2c(N)nc3ccccc3c2n1CCOCCNS(=O)(=O)c1ccccc1 [Example 10]
minimal effective concentration (interferon (α)): 1 µM | minimal effective concentration [1]: 10 µM

CCCCc1nc2c(N)nc3ccccc3c2n1CCOCCNS(=O)(=O)c1ccc(C(F)(F)F)cc1 [Example 21]
minimal effective concentration (interferon (α)): 10 µM | minimal effective concentration [1]: 10 µM

Nc1nc2ccccc2c2c1ncn2CCOCCNS(=O)(=O)c1cccc(F)c1 [Example 42]
minimal effective concentration (interferon (α)): 10 µM | minimal effective concentration [1]: 1 µM

Nc1nc2ccccc2c2c1ncn2CCOCCNS(=O)(=O)c1ccc(F)cc1F [Example 44]
minimal effective concentration (interferon (α)): 1 µM | minimal effective concentration [1]: 10 µM

CCCCS(=O)(=O)N1CCC(CCOCC(CC)n2cnc3c(N)nc4ccccc4c32)CC1 (centres unmarked) [Example 29]
minimal effective concentration (interferon (α)): 1 µM | minimal effective concentration [1]: 10 µM

CCC(COCCC1CCN(S(=O)(=O)C(C)C)CC1)n1cnc2c(N)nc3ccccc3c21 (centres unmarked) [Example 27]
minimal effective concentration (interferon (α)): 0.1 µM | minimal effective concentration [1]: 1 µM

CCCCc1nc2c(N)nc3ccccc3c2n1CCOCCNS(=O)(=O)N(C)C [Example 8]
minimal effective concentration (interferon (α)): 0.01 µM | minimal effective concentration [1]: 1 µM

Nc1nc2ccccc2c2c1ncn2CCOCCNS(=O)(=O)c1ccc(C(F)(F)F)cc1 [Example 46]
Lowest Effective Concentration (μM) Interferon (interferon (α)): * | Lowest Effective Concentration (μM) Tumor Necrosis Factor [1]: *

CCC(COCCC1CCN(S(=O)(=O)c2ccc(OC)cc2)CC1)n1cnc2c(N)nc3ccccc3c21 (centres unmarked) [Example 34]
minimal effective concentration (interferon (α)): 1 µM | minimal effective concentration [1]: 1 µM

CCCCc1nc2c(N)nc3ccccc3c2n1CCOCCNS(=O)(=O)c1ccc(C#N)cc1 [Example 14]
minimal effective concentration (interferon (α)): 1 µM | minimal effective concentration [1]: 10 µM

CCC(COCCC1CCN(S(=O)(=O)c2ccccc2)CC1)n1cnc2c(N)nc3ccccc3c21 (centres unmarked) [Example 30]
minimal effective concentration (interferon (α)): 1 µM | minimal effective concentration [1]: 10 µM

CCCCc1nc2c(N)nc3ccccc3c2n1CCOCCNS(=O)(=O)c1ccc(S(C)(=O)=O)cc1 [Example 23]
minimal effective concentration (interferon (α)): 0.0001 µM | minimal effective concentration [1]: 10 µM
